The target of the experiment is T1, glucocorticoid receptor (Homo sapiens, UniProt P04150).
T1 construct: expressed in transfected cells
T1 sequence (P04150 524-758 limits assumed): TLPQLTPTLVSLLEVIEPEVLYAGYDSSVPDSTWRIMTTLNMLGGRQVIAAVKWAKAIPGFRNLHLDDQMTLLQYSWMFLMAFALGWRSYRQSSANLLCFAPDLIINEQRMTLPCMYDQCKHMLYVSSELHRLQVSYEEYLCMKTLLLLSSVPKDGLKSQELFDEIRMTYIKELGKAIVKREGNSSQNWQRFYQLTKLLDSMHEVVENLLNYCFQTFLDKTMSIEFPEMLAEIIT
Nature of the experiment: Agonistic mode of action on the glucocorticoid receptor (CHO-Gal4/GR luciferase reporter cell line). The note with it: range class observed in the agonistic assay or the antagonistic assay (CHO-Gal4/GR reporter cells); table does not say which mode applies per example. Format: cell-based. The gist of the method:
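Agonism measured as dose-dependent luciferase luminescence (FLIPR Tetra) from a GAL4-UAS reporter driven by GAL4 DBD fused to GR ligand-binding domain in stable CHO cells. Eight half-log doses, 10 μM to 0.003 μM final in 0.5% DMSO, quadruplicate, on cells seeded 24 h earlier at 5000/well; EC50 derived.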

`Cc1c[nH]c2c(-c3ccc4c(c3C(F)(F)F)-n3c(C)nnc3C(C)(C)N4)cccc12` [Example 503, 1,4,4-Trimethyl-8-(3-methyl-1H-indol-7-yl)-9-(trifluoromethyl)-5H-[1,2,4]triazolo[4,3-a]quinoxaline] had an IC50 or EC50 (agonist or antagonist mode not specified) of 100 to 1000 nM.

As for `Cc1nnc2n1-c1c(cc(Cl)c(-c3cc(F)cc4c3cnn4CC(F)F)c1F)NC2(C)C` [Example 508, 7-Chloro-8-[1-(2,2-difluoro-ethyl)-6-fluoro-1H-indazol-4-yl]-9-fluoro-1,4,4-trimethyl-5H-[1,2,4] triazolo[4,3-a]quinoxaline], the IC50 or EC50 (agonist or antagonist mode not specified) lay within 100 to 1000 nM.

Turning to `Cc1c(-c2cc(F)cc3c(C4CC4)c[nH]c23)c(Cl)cc2c1-n1c(C)nnc1C(C)(C)N2` [Example 485, 7-Chloro-8-(3-cyclopropyl-5-fluoro-1H-indol-7-yl)-1,4,4,9-tetramethyl-5H-[1,2,4]triazolo [4,3-a]quinoxaline], the IC50 or EC50 (agonist or antagonist mode not specified) was below 100 nM.

As for `COc1cc(-c2c(F)cc3c(c2C)-n2c(C)nnc2C(C)(C)N3)c2ccn(S(C)(=O)=O)c2c1` [Example 537, 7-Fluoro-8-(6-methoxy-1-methylsulfonyl-1H-indol-4-yl)-1,4,4,9-tetramethyl-5H-[1,2,4] triazolo[4,3-a]quinoxaline], the IC50 or EC50 (agonist or antagonist mode not specified) was 100 to 1000 nM.

Molecule `Cc1nnc2n1-c1c(cc(F)c(-c3cccc4c3cnn4CC3CC3)c1F)NC2(C)C` [Example 235, 8-[1-(Cyclopropyl-methyl)-1H-indazol-4-yl]-7,9-difluoro-1,4,4-trimethyl-5H-[1,2,4]triazolo[4,3-a]quinoxaline] returned an IC50 or EC50 (agonist or antagonist mode not specified) below 100 nM.

`COc1c(-c2cc(F)cc3[nH]ccc23)c(F)cc2c1-n1c(C)nnc1C(C)(C)N2` [Example 468, 7-Fluoro-8-(6-fluoro-1H-indol-4-yl)-9-methoxy-1,4,4-trimethyl-5H-[1,2,4]triazolo[4,3-a]quinoxaline] displayed an IC50 or EC50 (agonist or antagonist mode not specified) below 100 nM.

Regarding `Cc1nnc2n1-c1c(cc(F)c(-c3cccc4c3ccn4CC(=O)N(C)C)c1F)NC2(C)C` [Example 212, 2-[4-(7,9-Difluoro-1,4,4-trimethyl-5H-[1,2,4]triazolo[4,3-a]quinoxalin-8-yl)-1H-indol-1-yl]-N,N-dimethyl-acetamide], the IC50 or EC50 (agonist or antagonist mode not specified) lay within 1000 to 15000 nM.

Take `COc1c(-c2cc(F)cc3c2ccn3S(C)(=O)=O)c(F)cc2c1-n1c(C)nnc1C(C)(C)N2` [Example 250, 7-Fluoro-8-(6-fluoro-1-methylsulfonyl-1H-indol-4-yl)-9-methoxy-1,4,4-trimethyl-5H-[1,2,4]triazolo[4,3-a]quinoxaline]: the IC50 or EC50 (agonist or antagonist mode not specified) was below 100 nM.

`Cc1c(-c2cccc3c2ccn3S(C)(=O)=O)c(OC(F)F)cc2c1-n1c(C)nnc1C(C)(C)N2` [Example 318, 7-(Difluoro-methoxy)-1,4,4,9-tetramethyl-8-(1-methylsulfonyl-1H-indol-4-yl)-5H-[1,2,4]triazolo[4,3-a]quinoxaline] registered an IC50 or EC50 (agonist or antagonist mode not specified) of 100 to 1000 nM.

`COc1c(-c2cccc3c(C)c[nH]c23)c(F)cc2c1-n1c(C)nnc1C(C)(C)N2` [Example 270, 7-Fluoro-9-methoxy-1,4,4-trimethyl-8-(3-methyl-1H-indol-7-yl)-5H-[1,2,4]triazolo[4,3-a]quinoxaline]: the IC50 or EC50 (agonist or antagonist mode not specified) is 100 to 1000 nM.

In the case of `Cc1nnc2n1-c1c(cc(F)c(-c3cccc4c3ccn4CCNC(=O)OC(C)(C)C)c1F)NC2(C)C` [Example 228, N-[2-[4-(7,9-Difluoro-1,4,4-trimethyl-5H-[1,2,4]triazolo[4,3-a]quinoxalin-8-yl)-1H-indol-1-yl]-ethyl]-carbarmic acid tert-butyl ester], the IC50 or EC50 (agonist or antagonist mode not specified) is 1000 to 15000 nM.

In turn, `COCC(=O)n1ccc2c(-c3c(F)cc4c(c3F)-n3c(C)nnc3C(C)(C)N4)cccc21` [Example 213, 1-[4-(7,9-Difluoro-1,4,4-trimethyl-5H-[1,2,4]triazolo[4,3-a]quinoxalin-8-yl)-1H-indol-1-yl]-2-methoxy-ethanone] showed an IC50 or EC50 (agonist or antagonist mode not specified) below 100 nM.

On to `Cc1n[nH]c2c(-c3c(F)cc4c(c3F)-n3c(C)nnc3C(C)(C)N4)cccc12` [Example 354, 7,9-Difluoro-1,4,4-trimethyl-8-(3-methyl-1H-indazol-7-yl)-5H-[1,2,4]triazolo[4,3-a]quinoxaline], for which the IC50 or EC50 (agonist or antagonist mode not specified) lay in the range of 100 to 1000 nM.

The molecule `Cc1cc2c(c(C)c1-c1cccc3c1ccn3S(C)(=O)=O)-n1c(C)nnc1C(C)(C)N2` [Example 309, 1,4,4,7,9-Pentamethyl-8-(1-methylsulfonyl-1H-indol-4-yl)-5H-[1,2,4]triazolo[4,3-a]quinoxaline] came in with an IC50 or EC50 (agonist or antagonist mode not specified) below 100 nM.

The molecule `Cc1c(-c2ccc(F)c3[nH]ncc23)c(F)cc2c1-n1c(C)nnc1C(C)(C)N2` [Example 524, 7-Fluoro-8-(7-fluoro-1H-indazol-4-yl)-1,4,4,9-tetramethyl-5H-[1,2,4]triazolo[4,3-a]quinoxaline] displayed an IC50 or EC50 (agonist or antagonist mode not specified) of 100 to 1000 nM.

Regarding `Cc1nnc2n1-c1c(cc(F)c(-c3cccc4c3cnn4S(C)(=O)=O)c1C(F)(F)F)NC2(C)C` [Example 446, 7-fluoro-1,4,4-trimethyl-8-(1-(methylsulfonyl)-1H-indazol-4-yl)-9-(trifluoromethyl)-4,5-dihydro-[1,2,4]triazolo[4,3-a]quinoxaline], the IC50 or EC50 (agonist or antagonist mode not specified) is 100 to 1000 nM.

As to `Cc1nnc2n1-c1c(cc(F)c(-c3cccc4c(C5CC5)c[nH]c34)c1Cl)NC2(C)C` [Example 85, 9-Chloro-8-(3-cyclopropyl-1H-indol-7-yl)-7-fluoro-1,4,4-trimethyl-5H-[1,2,4]triazolo[4,3-a]quinoxaline], the IC50 or EC50 (agonist or antagonist mode not specified) was 100 to 1000 nM.

Consider `Cc1c[nH]c2c(-c3c(F)cc4c(c3F)-n3c(Cc5ccccn5)nnc3C(C)(C)N4)cc(F)cc12` [Example 74, 7,9-Difluoro-8-(5-fluoro-3-methyl-1H-indol-7-yl)-4,4-dimethyl-1-(pyridin-2-yl-methyl)-5H-[1,2,4]triazolo[4,3-a]quinoxaline], for which the IC50 or EC50 (agonist or antagonist mode not specified) is below 100 nM.

`CCS(=O)(=O)n1ccc2c(-c3c(OC)cc4c(c3C(F)(F)F)-n3c(C)nnc3C(C)(C)N4)cc(F)cc21` [Example 369, 8-[1-(Ethylsulfonyl)-6-fluoro-1H-indol-4-yl]-7-methoxy-1,4,4-trimethyl-9-(trifluoromethyl)-5H-[1,2,4]triazolo[4,3-a]quinoxaline] came in with an IC50 or EC50 (agonist or antagonist mode not specified) of 100 to 1000 nM.

As to `Cc1c(-c2cc(F)cc3c(C)c[nH]c23)c(OC(F)F)cc2c1-n1c(C)nnc1C(C)(C)N2` [Example 365, 7-(Difluoro-methoxy)-8-(5-fluoro-3-methyl-1H-indol-7-yl)-1,4,4,9-tetramethyl-5H-[1,2,4]triazolo[4,3-a]quinoxaline], the IC50 or EC50 (agonist or antagonist mode not specified) lay in the range of 1000 to 15000 nM.

Molecule `COCCn1ccc2c(-c3c(Cl)cc4c(c3F)-n3c(C)nnc3C(C)(C)N4)cc(F)cc21` [Example 404, 7-Chloro-9-fluoro-8-[6-fluoro-1-(2-methoxy-ethyl)-1H-indol-4-yl]-1,4,4-trimethyl-5H-[1,2,4]triazolo[4,3-a]quinoxaline] gave an IC50 or EC50 (agonist or antagonist mode not specified) of 100 to 1000 nM.

Take `CCc1nnc2n1-c1c(cc(F)c(-c3c(F)ccc4[nH]ccc34)c1C)NC2(C)C` [Example 244, 1-Ethyl-7-fluoro-8-(5-fluoro-1H-indol-4-yl)-4,4,9-trimethyl-5H-[1,2,4]triazolo[4,3-a]quinoxaline]: the IC50 or EC50 (agonist or antagonist mode not specified) lay within 1000 to 15000 nM.

Molecule `Cc1c(-c2cccc3c(C)c[nH]c23)c(OC(F)F)cc2c1-n1c(C)nnc1C(C)(C)N2` [Example 360, 7-(Difluoro-methoxy)-1,4,4,9-tetramethyl-8-(3-methyl-1H-indol-7-yl)-5H-[1,2,4]triazolo[4,3-a]quinoxaline] showed an IC50 or EC50 (agonist or antagonist mode not specified) of 100 to 1000 nM.

Molecule `CCS(=O)(=O)n1ncc2c(-c3c(F)cc4c(c3C(F)(F)F)-n3c(C)nnc3C(C)(C)N4)cc(F)cc21` [Example 448, 8-[1-(Ethylsulfonyl)-6-fluoro-1H-indazol-4-yl]-7-fluoro-1,4,4-trimethyl-9-(trifluoromethyl)-5H-[1,2,4]triazolo[4,3-a]quinoxaline] yielded an IC50 or EC50 (agonist or antagonist mode not specified) of 100 to 1000 nM.

With `Cc1cc2c(c(F)c1-c1cccc3c1ccn3S(C)(=O)=O)-n1c(C)nnc1C(C)(C)N2` [Example 321, 9-Fluoro-1,4,4,7-tetramethyl-8-(1-methylsulfonyl-1H-indol-4-yl)-5H-[1,2,4]triazolo[4,3-a]quinoxaline], the IC50 or EC50 (agonist or antagonist mode not specified) fell in the range of 1000 to 15000 nM.

For the molecule `Cc1c(-c2cccc3c(C#CC(C)(C)N)c[nH]c23)c(F)cc2c1-n1c(C)nnc1C(C)(C)N2` [Example 40], the IC50 or EC50 (agonist or antagonist mode not specified) is below 100 nM.

`COCCn1ccc2c(-c3c(OC)cc4c(c3F)-n3c(C)nnc3C(C)(C)N4)cccc21` [Example 288, 9-Fluoro-7-methoxy-8-[1-(2-methoxy-ethyl)-1H-indol-4-yl]-1,4,4-trimethyl-5H-[1,2,4]triazolo[4,3-a]quinoxaline]: the IC50 or EC50 (agonist or antagonist mode not specified) was 1000 to 15000 nM.

As for `Cc1c(-c2cccc3[nH]ccc23)c(F)cc2c1-n1c(C)nnc1C(C)(C)N2` [Example 399, 7-Fluoro-8-(1H-indol-4-yl)-1,4,4,9-tetramethyl-5H-[1,2,4]triazolo[4,3-a]quinoxaline], the IC50 or EC50 (agonist or antagonist mode not specified) is below 100 nM.

`Cc1c(-c2cc(F)cc3c2cnn3S(C)(=O)=O)c(Cl)cc2c1-n1c(C)nnc1C(C)(C)N2` [Example 347, 7-Chloro-8-(6-fluoro-1-methylsulfonyl-1H-indazol-4-yl)-1,4,4,9-tetramethyl-5H-[1,2,4]triazolo[4,3-a]quinoxaline] registered an IC50 or EC50 (agonist or antagonist mode not specified) of 100 to 1000 nM.

(Values after patent US12110293B2, “Substituted triazolo quinoxaline derivatives” (GRÜNENTHAL GMBH, priority 2018, dated 2024).)
